Laboratory results as given in publication PMC3091868, “A Novel Structural Framework for α1A/D-Adrenoceptor Selective Antagonists Identified Using Subtype Selective Pharmacophores” (PLoS ONE, 2011).
pKi: −log10 of the molar value. Like-named read-outs stand apart in the source and are kept apart here.

Columns and labels:
[1] = target: T1, α1D-AR (Rattus norvegicus, UniProt P23944); assay: [3H]Prazosin competition/saturation binding on COS-1 membranes expressing α1D-AR; set-up: species or system rodent; conditions: [3H]Prazosin 200 pM; for pKi: antilog of mean pKi, Cheng-Prusoff; for Ki: pKi = -Log Ki, read-out: pKi α1D-AR (converted)
T1 construct: expressed in transfected cells; host or cells: COS-1
T1 sequence (P23944 1-561): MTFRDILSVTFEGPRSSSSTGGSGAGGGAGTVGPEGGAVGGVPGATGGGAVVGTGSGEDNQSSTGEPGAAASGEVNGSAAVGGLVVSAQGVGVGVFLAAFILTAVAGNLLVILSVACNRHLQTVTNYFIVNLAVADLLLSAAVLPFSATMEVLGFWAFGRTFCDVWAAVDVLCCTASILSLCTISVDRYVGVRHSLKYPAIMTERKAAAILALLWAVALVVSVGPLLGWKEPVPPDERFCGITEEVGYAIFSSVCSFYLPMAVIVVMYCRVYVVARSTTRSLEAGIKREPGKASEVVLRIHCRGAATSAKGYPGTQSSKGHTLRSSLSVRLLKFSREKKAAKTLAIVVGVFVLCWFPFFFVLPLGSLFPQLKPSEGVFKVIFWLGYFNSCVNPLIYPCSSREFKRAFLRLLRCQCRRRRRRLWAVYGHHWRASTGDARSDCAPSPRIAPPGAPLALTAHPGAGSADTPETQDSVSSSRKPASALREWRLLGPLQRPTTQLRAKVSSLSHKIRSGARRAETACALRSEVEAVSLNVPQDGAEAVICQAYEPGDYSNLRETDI
Experimental: (§1) COS-1 cells (American Type Culture Collection, Manassas, VA) were cultured in Dulbecco's modified Eagle's medium (DMEM) supplemented with 10% (v/v) heat inactivated fetal bovine serum (FBS), 100 µg ml^−1 penicillin and 100 µg ml^−1 streptomycin. Cells were maintained and passaged upon reaching confluence by standard cell culture techniques. pMT4 plasmids containing rodent α1-AR (a kind gift from Prof R Graham, Victor Chang Cardiac Research Institute, Australia) were used to transfect cells. Transient expression in COS-1 cells was accomplished using two techniques; the diethylaminoethane-dextran (DEAE-dextran) and Lipofectamine 2000 (Invitrogen, Carlsbad, CA, USA) methods. Briefly, the DEAE-dextran method involved washing of cells with phosphate buffered saline (PBS), followed by the addition of the DNA mixture (12–25 µg/4×10^6 cells) in DEAE-dextran (10 mg ml^−1) to cells at 60–80% confluency. Following a 3 h incubation, a PBS wash with 10% DMSO was used to shock the cells. Cells were harvested 72 h post transfection. For the Lipofectamine 2000 method, cells were incubated for 12 h with Opti-MEM (GIBCO BRL, Gaithersburg, MD, USA) containing Lipofectamine 2000.
(§2) Membranes were prepared as described previously. Briefly, COS-1 cells were transiently transfected using the DEAE-dextran method. […] Protein concentration was determined using Bradford reagent (Sigma, St Louis, MO, USA).
(§3) For all binding experiments, the reaction mixture was incubated for 1 h at room temperature, stopped by the addition of 4°C PBS and filtered with a Brandel cell harvester (Gaithersburg, MD, USA) on GF/C filters. Nonspecific binding was defined as binding in the presence of 100 µM phentolamine hydrochloride.
(§4) Nonlinear regression analysis of saturation and competition binding assay data was performed using the […] curve fitting program GraphPad Prism (San Diego, CA, USA). […] The competitive binding data for each ligand was tested for both one and two -site binding.

[2] = target: T2, α1A-AR (Rattus norvegicus, UniProt P43140); assay: Phosphatidylinositol hydrolysis (IP accumulation) assay in COS-1 cells expressing α1A-AR; format: cell-based, rodent; conditions: for IC50: 20 min compound, then 10 µM (-)-norepinephrine 30 min, COS-1 cells, read-out: pIC50, inhibition of norepinephrine induced IP accumulation at α1A-AR (converted)
T2 construct: expressed in transfected cells; host or cells: COS-1
T2 sequence (P43140 1-466): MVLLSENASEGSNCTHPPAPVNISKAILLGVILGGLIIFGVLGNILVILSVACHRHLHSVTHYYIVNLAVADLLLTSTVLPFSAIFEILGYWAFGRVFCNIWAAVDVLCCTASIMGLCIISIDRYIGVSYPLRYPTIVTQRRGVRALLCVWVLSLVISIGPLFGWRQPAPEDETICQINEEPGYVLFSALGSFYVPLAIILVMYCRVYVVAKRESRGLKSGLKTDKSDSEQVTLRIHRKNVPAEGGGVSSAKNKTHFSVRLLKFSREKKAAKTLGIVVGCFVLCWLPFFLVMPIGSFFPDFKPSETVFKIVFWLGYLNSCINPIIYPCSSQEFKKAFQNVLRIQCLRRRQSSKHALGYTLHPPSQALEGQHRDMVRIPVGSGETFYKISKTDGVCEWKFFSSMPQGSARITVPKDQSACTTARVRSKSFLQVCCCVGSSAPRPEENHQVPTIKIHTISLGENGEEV
Experimental: as §1
Accumulation of [^3H] inositol phosphates (IPs) was determined as described previously. Briefly, COS-1 cells were transiently transfected with α1A, α1B and α1D - AR pMT4 plasmids using the Lipofectamine method. 24 h after transfection, cells were seeded into 96 well plates and labelled overnight with 20 µCi ml^−1 [^3H]myo-inositol in inositol free DMEM supplemented with 5% charcoal stripped FBS. Cells were washed twice with inositol free DMEM, and incubated in inositol free DMEM for 2 h at 37°C. Cells were treated for 20 minutes with LiCl (20 mM) and propanolol (20 µM) in the presence or absence of tested compounds. Agonists were then added for 30 min, and the reaction was terminated by addition of 0.4 M formic acid. Cells were lysed by freeze thawing twice and were applied to AG 1-X8 columns. Total IPs were eluted with 1 M ammonium formate in 0.1 M formic acid. 200 µL of eluted sample was diluted with 1 mL reverse osmosis water and 5 mL Ultimaflow scintillation fluid (Perkin Elmer), and were counted in a liquid scintillation counter.
Compounds were administered alone (100 µM) or prior to the addition of 10 µM […], to screen for agonist or antagonist activity respectively.
Figure 2 Inhibition of norepinephrine induced inositol phosphate (IP) accumulation at α1A- AR. α1A-AR transfected cells labelled overnight with [^3H]- myo-inositol were treated with indicated concentrations (300 µM – 0.1 µM) of test compounds, 1 (▪), 2 (▵), and 11 (○), for 20 min. This was followed by a 30 min. stimulation with 10 µM (-)- norepinephrine, following which total IP accumulation was determined. Data was normalized against basal COS-1 cell IP production and expressed as a percentage of the (-)-norepinephrine-stimulated maximal IP response of that receptor subtype. The data represented the mean ± SE of a single experiment (n = 4–5), performed in triplicate.
Figure 3 Inositol phosphate (IP) accumulation in the presence of norepinephrine and compound 8 at the α1A- adrenoceptor (AR). α1A-AR transfected cells were labelled with [^3H]- myo-inositol. Following a 20 min. treatment with lithium chloride (20 mM) and propanolol (20 µM) the cells were stimulated with the indicated concentrations (300 µM − 0.1 µM) of (-) norepinephrine (•) or compound 8 (▪) for 30 min. Total inositol phosphate (IP) accumulation was determined as described under “Materials and Methods”. Data was normalized against basal COS-1 cell IP production and expressed as a percentage of the (-)-norepinephrine-stimulated maximal IP response. The data represents the mean ± SE of three separate experiments (n = 3), performed in duplicate or triplicate.

[3] = target: T3, α1B-AR (Mesocricetus auratus, UniProt P18841); assay: [3H]Prazosin competition/saturation binding on COS-1 membranes expressing α1B-AR; set-up: species or system rodent; conditions: for Ki: pKi = -Log Ki, read-out: pKi α1B-AR (converted)
T3 construct: expressed in transfected cells; host or cells: COS-1
T3 sequence (P18841 1-515): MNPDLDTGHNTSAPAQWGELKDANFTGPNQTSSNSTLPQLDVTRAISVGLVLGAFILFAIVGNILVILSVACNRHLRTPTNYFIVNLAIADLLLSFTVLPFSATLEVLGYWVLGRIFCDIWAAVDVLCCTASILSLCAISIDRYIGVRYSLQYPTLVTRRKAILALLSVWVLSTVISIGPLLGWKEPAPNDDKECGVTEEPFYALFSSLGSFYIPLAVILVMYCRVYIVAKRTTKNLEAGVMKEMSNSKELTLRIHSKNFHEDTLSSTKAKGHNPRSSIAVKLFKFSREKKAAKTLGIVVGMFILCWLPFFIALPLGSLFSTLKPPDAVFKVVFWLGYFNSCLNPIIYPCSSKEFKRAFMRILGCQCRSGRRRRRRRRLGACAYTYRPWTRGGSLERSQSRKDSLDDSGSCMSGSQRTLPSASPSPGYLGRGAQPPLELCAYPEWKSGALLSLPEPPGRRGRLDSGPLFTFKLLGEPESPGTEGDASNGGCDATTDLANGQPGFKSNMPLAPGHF
Experimental: as §1, §2, §3, §4

[4] = target: T2, α1A-AR; assay: [3H]Prazosin competition/saturation binding on COS-1 membranes expressing α1A-AR; set-up: species or system rodent; conditions: for pKi / Ki: [3H]Prazosin 200 pM, COS-1 membranes; for pKi: antilog of mean pKi, Cheng-Prusoff; for Ki: pKi = -Log Ki, read-out: pKi α1A-AR (converted)
Experimental: as §1, §2, §3, §4

[5] = target: T1, α1D-AR; assay: Phosphatidylinositol hydrolysis (IP accumulation) assay in COS-1 cells expressing α1D-AR; format: cell-based, rodent; conditions: 100 µM compound alone, agonist screen, n = 3
Experimental: as §1, with “For the Lipofectamine 2000 method, cells were incubated for 12 h with Opti-MEM (GIBCO BRL, Gaithersburg, MD, USA) containing Lipofectamine 2000.” left out
Accumulation of [^3H] inositol phosphates (IPs) was determined as described previously. […] 200 µL of eluted sample was diluted with 1 mL reverse osmosis water and 5 mL Ultimaflow scintillation fluid (Perkin Elmer), and were counted in a liquid scintillation counter. […]

[6] = target: all α1-AR subtypes; set-up: method as in PMID 9249248; conditions: cited from earlier work
[7] = [3H]Prazosin 200 pM, COS-1 membranes, antilog of mean pKi, Cheng-Prusoff, read-out: Ki α1B-AR
[8] = [3H]Prazosin 200 pM, COS-1 membranes

SMILES	pKi ([1]; read-out: Ki α1D-AR)	Ki [1]	pKi [3, 7]	pKi ([4]; read-out: Ki α1A-AR)	Ki [3, 8]	Ki [4]	Maximal IP production, % of the (-) norepinephrine control ([2]; COS-1 cells expressing α1A-AR)	EC50 ([2]; COS-1 cells expressing α1A-AR, 30 min, n = 3, read-out: pEC50, increase in intracellular IP at α1A-AR (converted))	pKi ([1]; Ki α1D-AR)	IC50 [2]	pKi [3]	pKi ([4]; Ki α1A-AR)	selectivity for α1A-AR over α1B-AR ([4]; from binding affinities)	selectivity for α1A-AR over α1D-AR ([4]; from binding affinities)	IP production, compound alone, compared to control, α1A-AR ([2]; 100 µM compound alone, agonist screen, n = 3)	IP production, compound alone, compared to control, α1D-AR [5]	pKi [6]
Cc1ccc(C)c(N2CCN(CC(O)COC(C)(C)C)CC2)c1 (centres unmarked) [Compound 1]	6.08	0.794 µM	5.85	5.93	–	–	–	–	> 5.70	25.1 µM	> 5.70	> 5.70	–	–	–	–	–
COc1cccc(C=CCN2CCN(c3cccc(C(F)(F)F)c3)CC2)c1 [Compound 2]	4.73	10.5 µM	5.34	6.31	–	–	–	–	–	17 µM	–	–	10 fold	38 fold	–	–	–
CCN(Cc1ccccc1)CC(O)c1cccc(Cl)c1 (centres unmarked) [Compound 3]	5.08	7.76 µM	4.61	4.82	9.55 µM	12.6 µM	–	–	–	–	–	–	–	–	–	–	–
Cc1cccc(CN2CCCN(C(=S)NCCN3CCOCC3)CC2)n1 [Compound 5]	< 4.00	> 100 µM	< 4.00	< 4.00	> 100 µM	> 100 µM	–	–	–	–	–	–	–	–	–	–	–
CCCCC(O)CN1CCC(Cc2ccccc2)CC1 (centres unmarked) [Compound 6]	5.23	5.5 µM	4.77	5.28	13.5 µM	4.9 µM	–	–	–	–	–	–	–	–	–	–	–
CN(C)c1ccc(CN2CCCN(Cc3ccc(N(C)C)cc3)C2c2cc(Cl)ccc2O)cc1 [Compound 9]	4.44	24.5 µM	< 4.00	4.61	> 100 µM	23.4 µM	–	–	–	–	–	–	–	–	–	–	–
COc1cc2nc(N3CCN(C(=O)c4ccco4)CC3)nc(N)c2cc1OC [prazosin]	–	–	–	–	–	–	–	–	–	–	–	–	–	–	–	–	~10.00

Now from value to compound, other results behind:

pKi ([1]; read-out: Ki α1D-AR)	Ki [1]	pKi [3, 7]	pKi ([4]; read-out: Ki α1A-AR)	Ki [3, 8]	Ki [4]	Maximal IP production, % of the (-) norepinephrine control ([2]; COS-1 cells expressing α1A-AR)	EC50 ([2]; COS-1 cells expressing α1A-AR, 30 min, n = 3, read-out: pEC50, increase in intracellular IP at α1A-AR (converted))	SMILES	pKi ([1]; Ki α1D-AR)	IC50 [2]	pKi [3]	pKi ([4]; Ki α1A-AR)	selectivity for α1A-AR over α1B-AR ([4]; from binding affinities)	selectivity for α1A-AR over α1D-AR ([4]; from binding affinities)	IP production, compound alone, compared to control, α1A-AR ([2]; 100 µM compound alone, agonist screen, n = 3)	IP production, compound alone, compared to control, α1D-AR [5]	pKi [6]
< 4.00	> 100 µM	< 4.00	< 4.00	> 100 µM	> 100 µM	–	–	Cc1cc(CN2CCCN(C(=S)Nc3ccccc3C(F)(F)F)CC2)no1 [Compound 4]	–	–	–	–	–	–	–	–	–
–	9.77 µM	4.41	4.69	17 µM	14.8 µM	–	–	CN(C)CC(C(=O)c1ccc(Br)cc1)C(Br)c1ccccc1 (centres unmarked) [Compound 7]	–	–	–	–	–	–	–	–	–
4.31	–	< 4.00	4.34	> 100 µM	41.7 µM	approximately 30%	5.5 µM	CCCCCCCCN(CCCCCCCC)CC(O)c1ccccc1Cl (centres unmarked) [Compound 8]	–	–	–	–	–	–	distinct trend of increased IP production	distinct trend of increased IP production	–
< 4.00	> 100 µM	< 4.00	< 4.00	> 100 µM	> 100 µM	–	–	Cc1ccc(C(=O)/C(S)=C(\Nc2cccc(Cl)c2)[n+]2ccccc2)cc1 [Compound 10]	–	–	–	–	–	–	–	–	–
5.80	1.51 µM	4.93	5.70	11 µM	1.78 µM	–	–	COc1cc2c(cc1OC)C1CC(C)=C(c3ccccc3)CN1CC2 (centres unmarked) [Compound 11]	–	13.2 µM	–	–	7 fold	–	–	–	–
4.20	32.4 µM	< 4.00	4.34	> 100 µM	30.9 µM	–	–	CCCCN(Cc1ccc(N(CC)CC)cc1)CC(O)c1ccc(Cl)cc1 (centres unmarked) [Compound 12]	–	–	–	–	–	–	–	–	–
